Laboratory results taken from US9408850B2, “Substituted indazole derivatives active as kinase inhibitors” (NERVIANO MEDICAL SCIENCES S.R.L., priority 2011, dated 2016).
Counter-ions that a name gives are not always drawn.

Key:
[1] = molecular target: FLT3 cytoplasmic domain (GST fused protein) (Homo sapiens (Human), UniProt P36888); experiment: Biochemical assay for inhibitors of FLT3 kinase activity; details: 2 nM pre activated enzyme, 254 microM ATP, 60 minutes at r.t.
Procedure: FLT3 cytoplasmic domain (aa 564-993end of the 993 aminoacid long full length sequence, accession number P36888 of UniProtKB/Swiss-Prot. database) was amplified by PCR starting from a testis cDNA library and then cloned into pVL vector for expression in insect cells through the baculovirus system. The GST-FLT3 cytoplasmic domain has been expressed in Sf21 cells infected for 72 hours at 27° C. The recombinant protein has been purified by affinity on GSH-sepharose and eluted with glutathione. A further purification step has been performed on heparine sepharose. […] General Principle-A specific peptidic substrate was trans-phosphorylated by the kinase in the presence of ATP traced with 33Pγ-ATP. At the end of the phosphorylation reaction, the not reacted ATP, cold and radioactive, was captured by an excess of dowex ion exchange resin that eventually settled by gravity to the bottom of the reaction plate. The supernatant was subsequently withdrawn and transferred into a counting plate that was then evaluated by β-counting. • ii. Dowex resin preparation-500 g of wet resin (SIGMA, custom prepared resin DOWEX 1×8 200-400 mesh, 2.5 Kg) were weighed out and diluted to 2 L in 150 mM sodium formate, pH 3.00. The resin was allowed to settle down overnight and then the supernatant was discarded. After three washes as above over a couple of days, the resin was allowed to settle and two volumes (with respect to the resin volume) were added of 150 mM sodium formate buffer. Biochemical Assay for Inhibitors of FLT3 Kinase Activity • i. Enzyme-The assay was performed using FLT3 cytoplasmic domain product and purified in house as GST fused protein. […] NO: 1). The peptide was purchased from American Peptide Company (Sunnyvale, Calif.). Biochemical Assay for Inhibitors of KIT Kinase Activity • i. Enzyme-The assay has been performed using KIT cytoplasmic domain product and purified in house as GST fused protein. […] NO: 2). The peptide was purchased from American Peptide Company (Sunnyvale, Calif.). Compound Testing • i. […] An automated station for serial dilutions (Biomek FX, Beckman) was used for producing 1:3 dilutions in 100% DMSO, from line A1 to A10, and for all the compounds in the column. […] The following dispensation into the plates plus 3 cycles of mixing, done by the robot itself, started the kinase reaction. At this point, the correct concentrations were restored for all the reagents. The robot incubated the plates for 60 minutes at r.t., and then stopped the reaction by pipetting 60 microL of dowex resin suspension into the reaction mix. In order to avoid tip clogging, wide bore tips were used to dispense the resin suspension. Three cycles of mixing were done immediately after the addition of the resin. Another mixing cycle was performed after all the plates were stopped, this time using normal tips: the plates were then allowed to rest for about one hour in order to allow resin sedimentation. […] Data Fitting-Data were analyzed by an internally customized version of the SW package “Assay Explorer” that provided sigmoidal fitting of the ten-dilutions curves for IC50 determination in the secondary assays/hit confirmation routines. Cell-Based Assays for Inhibitors of FLT3 Kinase Activity In vitro Cell Proliferation Assay for Inhibitors of FLT3 Kinase Activity

[2] = molecular target: KIT cytoplasmic domain (GST fused protein) (Homo sapiens (Human), UniProt P10721); experiment: Biochemical assay for inhibitors of KIT kinase activity; details: 4 nM pre activated enzyme, 4.4 microM ATP, 60 minutes at r.t.
Procedure: KIT cytoplasmic domain (aa 544-976end of the 976 aminoacid long full length sequence, accession number P10721 of UniProtKB/Swiss-Prot database) was cloned into pVL vector for expression in insect cells through the baculovirus system. The GST-KIT cytoplasmic domain has been expressed in Sf21 cells infected for 66 hrs at 27° C. The recombinant protein has been purified by affinity on GSH-sepharose and eluted with glutathione. […] General Principle-A specific peptidic substrate was trans-phosphorylated by the kinase in the presence of ATP traced with 33Pγ-ATP. At the end of the phosphorylation reaction, the not reacted ATP, cold and radioactive, was captured by an excess of dowex ion exchange resin that eventually settled by gravity to the bottom of the reaction plate. The supernatant was subsequently withdrawn and transferred into a counting plate that was then evaluated by β-counting. • ii. Dowex resin preparation-500 g of wet resin (SIGMA, custom prepared resin DOWEX 1×8 200-400 mesh, 2.5 Kg) were weighed out and diluted to 2 L in 150 mM sodium formate, pH 3.00. The resin was allowed to settle down overnight and then the supernatant was discarded. After three washes as above over a couple of days, the resin was allowed to settle and two volumes (with respect to the resin volume) were added of 150 mM sodium formate buffer. Biochemical Assay for Inhibitors of FLT3 Kinase Activity • i. Enzyme-The assay was performed using FLT3 cytoplasmic domain product and purified in house as GST fused protein. […] The peptide was purchased from American Peptide Company (Sunnyvale, Calif.). Biochemical Assay for Inhibitors of KIT Kinase Activity • i. Enzyme-The assay has been performed using KIT cytoplasmic domain product and purified in house as GST fused protein. […] NO: 2). The peptide was purchased from American Peptide Company (Sunnyvale, Calif.). Compound Testing • i. […] An automated station for serial dilutions (Biomek FX, Beckman) was used for producing 1:3 dilutions in 100% DMSO, from line A1 to A10, and for all the compounds in the column. […] The following dispensation into the plates plus 3 cycles of mixing, done by the robot itself, started the kinase reaction. At this point, the correct concentrations were restored for all the reagents. The robot incubated the plates for 60 minutes at r.t., and then stopped the reaction by pipetting 60 microL of dowex resin suspension into the reaction mix. In order to avoid tip clogging, wide bore tips were used to dispense the resin suspension. Three cycles of mixing were done immediately after the addition of the resin. Another mixing cycle was performed after all the plates were stopped, this time using normal tips: the plates were then allowed to rest for about one hour in order to allow resin sedimentation. […] Data Fitting-Data were analyzed by an internally customized version of the SW package “Assay Explorer” that provided sigmoidal fitting of the ten-dilutions curves for IC50 determination in the secondary assays/hit confirmation routines. Cell-Based Assays for Inhibitors of FLT3 Kinase Activity In vitro Cell Proliferation Assay for Inhibitors of FLT3 Kinase Activity

Chain of KIT cytoplasmic domain (GST fused protein) (P10721 544-976): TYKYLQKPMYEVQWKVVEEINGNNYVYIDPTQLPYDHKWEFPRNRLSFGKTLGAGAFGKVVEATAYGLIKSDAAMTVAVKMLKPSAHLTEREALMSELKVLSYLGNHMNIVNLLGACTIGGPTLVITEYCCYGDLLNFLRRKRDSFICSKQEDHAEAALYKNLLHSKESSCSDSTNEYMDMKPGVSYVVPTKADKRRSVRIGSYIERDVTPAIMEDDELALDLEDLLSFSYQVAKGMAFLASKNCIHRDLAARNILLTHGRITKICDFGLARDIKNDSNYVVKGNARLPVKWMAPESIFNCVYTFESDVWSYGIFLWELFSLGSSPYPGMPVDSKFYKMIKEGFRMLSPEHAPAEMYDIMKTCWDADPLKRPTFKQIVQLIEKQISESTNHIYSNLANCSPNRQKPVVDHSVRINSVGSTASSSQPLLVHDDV
Chain of FLT3 cytoplasmic domain (GST fused protein) (P36888 564-993): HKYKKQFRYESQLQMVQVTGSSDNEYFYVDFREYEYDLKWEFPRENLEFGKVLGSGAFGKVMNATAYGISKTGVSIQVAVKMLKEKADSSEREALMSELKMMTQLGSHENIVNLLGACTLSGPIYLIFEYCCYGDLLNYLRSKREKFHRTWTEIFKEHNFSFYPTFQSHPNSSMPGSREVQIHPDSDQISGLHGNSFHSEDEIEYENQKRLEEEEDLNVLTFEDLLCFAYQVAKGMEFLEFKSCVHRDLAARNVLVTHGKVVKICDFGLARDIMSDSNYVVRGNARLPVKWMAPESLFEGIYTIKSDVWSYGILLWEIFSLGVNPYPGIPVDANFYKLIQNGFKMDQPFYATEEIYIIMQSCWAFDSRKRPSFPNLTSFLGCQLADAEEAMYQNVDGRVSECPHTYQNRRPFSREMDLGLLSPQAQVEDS

IC50 [1] [nM] | IC50 [2] [nM] | Structure (SMILES)
1130 | 172 | CN1CCN(c2ccc(C(=O)Nc3n[nH]c4cc(Oc5ccccc5)ccc34)cc2)CC1 [Cpd. 2, 4-(4-Methyl-piperazin-1-yl)-N-(6-phenoxy-1H-indazol-3-yl)-benzamide]
639 | 564 | CN1CCN(c2ccc(C(=O)Nc3n[nH]c4cc(Oc5cccc(F)c5)ccc34)cc2)CC1 [Cpd. 3, N-[6-(3-Fluoro-phenoxy)-1H-indazol-3-yl]-4-(4-methyl-piperazin-1-yl)-benzamide]
974 | > 10000 | CN1CCN(c2ccc(C(=O)Nc3n[nH]c4cc(Oc5ccc(OCc6ccccc6)cc5)ccc34)cc2)CC1 [Cpd. 4, N-[6-(4-Benzyloxy-phenoxy)-1H-indazol-3-yl]-4-(4-methyl-piperazin-1-yl)-benzamide]
< 50 | 76 | CN(C)C1CCN(c2ccc(C(=O)Nc3n[nH]c4cc(OCCOCc5ccccc5)ccc34)cc2)CC1 [Cpd. 15, N-[6-(2-Benzyloxy-ethoxy)-1H-indazol-3-yl]-4-(4-dimethylamino-piperidin-1-yl)-benzamide]
< 50 | 106 | CN(C)CCN(C)c1ccc(C(=O)Nc2n[nH]c3cc(OCCOCc4ccccc4)ccc23)cc1 [Cpd. 16, N-[6-(2-Benzyloxy-ethoxy)-1H-indazol-3-yl]-4-[(2-dimethylamino-ethyl)-methyl-amino]-benzamide]
414 | 1390 | CC(C)(C)OC(=O)N1CCN(c2ccc(C(=O)Nc3n[nH]c4cc(OCCOCc5ccccc5)ccc34)cc2)CC1 [Cpd. 18, 4-{4-[6-(2-Benzyloxy-ethoxy)-1H-indazol-3-ylcarbamoyl]-phenyl}-piperazine-1-carboxylic acid tert-butyl ester]
< 50 | 61 | CN1CCC(Nc2ccc(C(=O)Nc3n[nH]c4cc(OCCOCc5ccccc5)ccc34)cc2)CC1 [Cpd. 19, N-[6-(2-Benzyloxy-ethoxy)-1H-indazol-3-yl]-4-(1-methyl-piperidin-4-ylamino)-benzamide]
136 | 306 | O=C(Nc1n[nH]c2cc(OCCOCc3ccccc3)ccc12)c1ccc(N2CC(N3CCCC3)C2)cc1 [Cpd. 28, N-[6-(2-Benzyloxy-ethoxy)-1H-indazol-3-yl]-4-(3-pyrrolidin-1-yl-azetidin-1-yl)-benzamide]

Continued, compound first:

Structure (SMILES) | IC50 [1] [nM] | IC50 [2] [nM]
CN1CCN(c2ccc(C(=O)Nc3n[nH]c4cc(OCc5ccccc5)ccc34)cc2)CC1 [Cpd. 1, N-(6-Benzyloxy-1H-indazol-3-yl)-4-(4-methyl-piperazin-1-yl)-benzamide] | 428 | 2800
CN1CCN(c2ccc(C(=O)Nc3n[nH]c4cc(OCc5cccc(Oc6ccccc6)c5)ccc34)cc2)CC1 [Cpd. 5, 4-(4-Methyl-piperazin-1-yl)-N-[6-(3-phenoxy-benzyloxy)-1H-indazol-3-yl]-benzamide] | 1170 | 2620
CN1CCN(c2ccc(C(=O)Nc3n[nH]c4cc(OC5CCN(Cc6ccccc6)CC5)ccc34)cc2)CC1 [Cpd. 6, N-[6-(1-Benzyl-piperidin-4-yloxy)-1H-indazol-3-yl]-4-(4-methyl-piperazin-1-yl)-benzamide] | 248 | 6890
CN1CCN(c2ccc(C(=O)Nc3n[nH]c4cc(OCC#Cc5ccccc5)ccc34)cc2)CC1 [Cpd. 7, 4-(4-Methyl-piperazin-1-yl)-N-[6-(3-phenyl-prop-2-ynyloxy)-1H-indazol-3-yl]-benzamide] | 249 | 1500
CN1CCN(c2ccc(C(=O)Nc3n[nH]c4cc(Oc5cccc(OCc6ccccc6)c5)ccc34)cc2)CC1 [Cpd. 9, N-[6-(3-Benzyloxy-phenoxy)-1H-indazol-3-yl]-4-(4-methyl-piperazin-1-yl)-benzamide] | 1500 | 713
CN1CCN(c2ccc(C(=O)Nc3n[nH]c4cc(OCCOc5ccccc5)ccc34)cc2)CC1 [Cpd. 10, 4-(4-Methyl-piperazin-1-yl)-N-[6-(2-phenoxy-ethoxy)-1H-indazol-3-yl]-benzamide] | < 50 | 956
CN1CCN(c2ccc(C(=O)Nc3n[nH]c4cc(OCCOCc5ccccc5)ccc34)cc2)CC1 [Cpd. 11, N-[6-(2-Benzyloxy-ethoxy)-1H-indazol-3-yl]-4-(4-methyl-piperazin-1-yl)-benzamide] | < 50 | 113
C[N+]1([O-])CCN(c2ccc(C(=O)Nc3n[nH]c4cc(OCCOCc5ccccc5)ccc34)cc2)CC1 [Cpd. 14, N-[6-(2-Benzyloxy-ethoxy)-1H-indazol-3-yl]-4-(4-methyl-4-oxy-piperazin-1-yl)-benzamide] | < 50 | 118
CN(C)CCCN(C)c1ccc(C(=O)Nc2n[nH]c3cc(OCCOCc4ccccc4)ccc23)cc1 [Cpd. 17, N-[6-(2-Benzyloxy-ethoxy)-1H-indazol-3-yl]-4-[(3-dimethylamino-propyl)-methyl-amino]-benzamide] | 62 | 146
CN1CCC(Oc2ccc(C(=O)Nc3n[nH]c4cc(OCCOCc5ccccc5)ccc34)cc2)CC1 [Cpd. 22, N-[6-(2-Benzyloxy-ethoxy)-1H-indazol-3-yl]-4-(1-methyl-piperidin-4-yloxy)-benzamide] | 56 | 55
O=C(Nc1n[nH]c2cc(OCCOCc3ccccc3)ccc12)c1ccc(NCCN2CCOCC2)cc1 [Cpd. 25, N-[6-(2-Benzyloxy-ethoxy)-1H-indazol-3-yl]-4-(2-morpholin-4-yl-ethylamino)-benzamide hydrochloride] | 74 | 197
CN1CCC(CNc2ccc(C(=O)Nc3n[nH]c4cc(OCCOCc5ccccc5)ccc34)cc2)CC1 [Cpd. 27, N-[6-(2-Benzyloxy-ethoxy)-1H-indazol-3-yl]-4-[(1-methyl-piperidin-4-ylmethyl)-amino]-benzamide] | < 50 | 91
CN1CCN(c2cccc(C(=O)Nc3n[nH]c4cc(OCCOCc5ccccc5)ccc34)c2)CC1 [Cpd. 29, N-[6-(2-Benzyloxy-ethoxy)-1H-indazol-3-yl]-3-(4-methyl-piperazin-1-yl)-benzamide hydrochloride] | 635 | 1080
